# Where “and” joins values, the source holds several entries; their conditions need not be identical. Identical values can stand only once.
# Columns and labels:
# Human Monocytes [1] = test: LPS-induced TNF production by adherent peripheral blood mononuclear cells, ELISA; type: cell-based
# Protocol: Human peripheral blood mononuclear cells were isolated on Ficoll-Paque (Pharmacia) gradients, washed 2X in pyrogen-free HBSS (Hazelton), and resuspended at 5 X 10^6/ml in RPMI (Gibco) media without serum. Two hundred µl of this cell suspension was incubated in each well of flat-bottom 96-well tissue culture dishes (Costar) for 2 hours at 37°C. Nonadherent cells were removed by washing 2X with RPMI + 10% autologous heat inactivated serum. Adherent mononuclear cells were stimulated with E. coli 0111:B4 LPS which had been preincubated for 30 minutes at 37°C with buffer, BPI Protein or polymyxin B (Gibco; 7900 U/ml). Supernatants were harvested four hours after LPS mixtures were added. Secretion of TNFα was quantitated by ELISA (Endogen) (results at Table 9).
# BPI Protein produced in soluble form at low temperature in E. coli and purified as described above in purification process A was tested for inhibition of endotoxin-mediated TNF induction by human adherent mononuclear cells. Blood collected in acid citrate dextrose containing vacutainer tubes (Becton Dickinson, Rutherford, NJ) was diluted in Hank's balanced salt solution (HBSS) minus Ca^+2 and Mg^+2. Mononuclear cells were separated using Ficol-Paque (Pharmacia Inc., Piscataway, N.J.), collected and washed three times in HBSS, and the proportion of monocytes was estimated by microscopic examination. Cells were brought up to an appropriate volume of RPMI 1640 with glutamine and antibiotics and without serum to give approximately 1 x 10^6 monocytes/ml. Cells were plated into 96 11 flat bottom tissue culture plates (Costar, Cambridge, MA), 200 µl/well, and incubated for two hours at 37°C in a humidified incubator with […]. Cells were then washed three times in warm RPMI 1640 without serum. After the last wash was aspirated, 200 µl/well RPMI 1640 with 10% autologous heat-inactivated serum was added. To each well was then added the 22µl of 10X solution of E. coli endotoxin preincubated in buffer, polymyxin B, or BPI Protein. Cells were incubated with the endotoxin mixture for four hours at 37°C, then the supernatants were collected and assayed for TNFα antigen by ELISA (Endogen, Inc., Boston, MA) (Figure 12) .
# human neutrophils = test: Neutrophil stimulation by LPS: CR1/CR3 upregulation, flow cytometry; type: cell-based; settings: stoichiometric calculation
# Protocol: Venous blood was drawn from healthy volunteer donors into acid citrate dextrose anticoagulant and immediately placed on ice. Five parts blood were mixed with 1 part cold Macrodex, and allowed to settle for 1.5 - 2 hours at 4°C. Leukocyte-rich plasma was washed 1X in cold HBSS, then resuspended in HBSS and layered over Ficoll-Paque. If significant erythrocyte contamination was present, the granulocyte pellet was subjected to hypotonic lysis. The cells were washed 2X in HBSS and resuspended in HBSS + 2% autologous plasma to give a final granulocyte concentration of 1 X 10^6/ml in the incubation mixture.
# Isolated neutrophils were kept on ice until incubated with and without stimuli at 37°C for 30 minutes. Following the incubation, cells were washed in a large volume of cold PBS + 0.05% Na Azide + 2% autologous plasma. […] Following a 30 minute incubation at 0°C and 2 more washes, the cells were analyzed by flow cytometry on a Becton Dickinson FACStar flow cytometer (Becton Dickinson, Mountain View, CA). […]
# Human neutrophils may be stimulated both in vivo and in vitro by lipopolysaccharide. […] Using the Fluorescence Activated Cell Sorter (FACS), fluorescence intensity of freshly isolated human neutrophils was measured following stimulation with increasing doses of 0111:B4 LPS (data not shown). […]
# [2] = type: binding; settings: data not shown
# Protocol: BPI Protein binds to LPS (data not shown). In these experiments, 4 µg of LPS/well was immobilized on 96 well plastic plates, then incubated with varying concentrations of BPI Protein, and developed with anti-BPI Protein polyclonal antisera. […]
# Human Monocytes [3] = test: LPS-induced TNF production by adherent peripheral blood mononuclear cells, ELISA; type: cell-based; settings: Table 8; 1000 ng/ml Polymyxin B; 0.1 % w/v killed S. aureus
# mice = test: Intranasal LPS challenge, TNFα in broncheoalveolar lavage fluid; type: in vivo; parameters: TNFα level in Broncheoalveolar Lavage Fluid, individual mouse: unit not given here; settings: Polymyxin B 1.0µg (782 pmol) intranasal 20 minutes before LPS, BAL 1 hour after challenge
# Protocol: Normal anesthetized mice were challenged by the intranasal route with 10 ng/ml E. coli 0111:B4 LPS (results in Table 10). Twenty minutes before challenge, anesthetized mice were treated by the intranasal route with 50µl saline, BPI Protein or polymyxin B solution. At one hour after LPS challenge, mice were re-anesthetized, and 0.7 ml of saline containing 1% human serum albumin was added to the lungs via the trachea. The lungs were gently kneaded. A 0.5 ml volume broncheoalveolar lavage (BAL) fluid was aspirated, cells were pelleted by centrifugation, and the BAL sample was stored at -70°C. The TNFα level in the BAL fluid was determined by measuring cytotoxicity towards WEHI clone 13 mouse fibrosarcoma cells and is summarized in Table 10. Human rTNFα (Chiron) was used as the standard.
substance,measurement,setting,value
Polymyxin B,TNF Produced in Response to LPS Preincubated with substance,"Human Monocytes [1]; Table 5, 100 ng/ml, LPS 0 ng/ml",0 pg/mL
same,TNF Produced in Response to LPS Preincubated with substance,"Human Monocytes [1]; Table 5, 100 ng/ml, LPS 0.1 ng/ml",0 pg/mL
same,TNF Produced in Response to LPS Preincubated with substance,"Human Monocytes [1]; Table 5, 100 ng/ml, LPS 1 ng/ml",96 pg/mL
same,TNF Produced in Response to LPS Preincubated with substance,"Human Monocytes [1]; Table 5, 100 ng/ml, LPS 10 ng/ml",2154 pg/mL
same,TNF Produced in Response to LPS Preincubated with substance,"Human Monocytes [1]; Table 5, 500 ng/ml, LPS 0 ng/ml",0 pg/mL
same,TNF Produced in Response to LPS Preincubated with substance,"Human Monocytes [1]; Table 5, 500 ng/ml, LPS 0.1 ng/ml",0 pg/mL
same,TNF Produced in Response to LPS Preincubated with substance,"Human Monocytes [1]; Table 5, 500 ng/ml, LPS 1 ng/ml",0 pg/mL
same,TNF Produced in Response to LPS Preincubated with substance,"Human Monocytes [1]; Table 5, 500 ng/ml, LPS 10 ng/ml",1490 pg/mL
same,TNF Produced in Response to LPS Preincubated with substance,"Human Monocytes [1]; Table 7, 100 ng/ml PMB, LPS 0 ng/ml",0 pg/mL
same,TNF Produced in Response to LPS Preincubated with substance,"Human Monocytes [1]; Table 7, 100 ng/ml PMB, LPS 0.1 ng/ml",79 pg/mL
same,TNF Produced in Response to LPS Preincubated with substance,"Human Monocytes [1]; Table 7, 100 ng/ml PMB, LPS 1 ng/ml",1207 pg/mL
same,TNF Produced in Response to LPS Preincubated with substance,"Human Monocytes [1]; Table 7, 100 ng/ml PMB, LPS 10 ng/ml",1270 pg/mL
same,TNF Produced in Response to S. aureus Preincubated with substance,"Human Monocytes [1]; Table 8, 100 ng/ml Polymyxin B, 0.1 % w/v killed S. aureus",1541 ± 397 pg/mL
same,TNF Produced in Response to LPS Preincubated with substance,"Human Monocytes [1]; Table 8, 100 ng/ml Polymyxin B, LPS 10 (unit not given)",601 ± 257 pg/mL
same,TNF Produced in Response to LPS Preincubated with substance,"Human Monocytes [1]; Table 8, 100 ng/ml Polymyxin B, LPS 100 (unit not given)",1140 ± 73 pg/mL
same,TNF Produced in Response to LPS Preincubated with substance,"Human Monocytes [1]; Table 8, 100 ng/ml Polymyxin B, LPS 1000 (unit not given)",1016 ± 20 pg/mL
same,TNF Produced in Response to LPS Preincubated with substance,"Human Monocytes [1]; Table 8, 1000 ng/ml Polymyxin B, LPS 10 (unit not given)",333 ± 18 pg/mL
same,TNF Produced in Response to LPS Preincubated with substance,"Human Monocytes [1]; Table 8, 1000 ng/ml Polymyxin B, LPS 100 (unit not given)",769 ± 101 pg/mL
same,TNF Produced in Response to LPS Preincubated with substance,"Human Monocytes [1]; Table 8, 1000 ng/ml Polymyxin B, LPS 1000 (unit not given)",844 ± 144 pg/mL
same,calculated amount of PMB required to inhibit 10 ng/ml of smooth LPS,human neutrophils,approximately 0.67 nM
same,inhibition of BPI Protein binding to LPS,[2],inhibited
same,TNF Produced in Response to S. aureus Preincubated with substance,Human Monocytes [3],1685 ± 121 pg/mL
same,"TNFα level in Broncheoalveolar Lavage Fluid, Mean ± SD",mice,253 ± 251
same,"TNFα level in Broncheoalveolar Lavage Fluid, individual mouse",mice; mice 1-5,74 and 50 and 132 and 370 and 640
